Key:
Assay type in all cases: functional
Amaranthus tuberculatus [1] = test: Herbicidal activity against Amaranthus tuberculatus biotype MCR 16 assessed as visual injury at 92 g/ha applied as spray after 21 days under green house conditions relative to untreated control
Amaranthus tuberculatus [2] = test: Herbicidal activity against Amaranthus tuberculatus biotype MCR 15 assessed as visual injury at 92 g/ha applied as spray after 7 days under green house conditions relative to untreated control
Amaranthus tuberculatus [3] = test: Herbicidal activity against Amaranthus tuberculatus biotype ACR assessed as visual injury at 92 g/ha applied as spray after 14 days under green house conditions relative to untreated control
Amaranthus tuberculatus [4] = test: Herbicidal activity against Amaranthus tuberculatus biotype ACR assessed as visual injury at 92 g/ha applied as spray after 7 days under green house conditions relative to untreated control
Amaranthus tuberculatus [5] = test: Herbicidal activity against Amaranthus tuberculatus biotype WCS assessed as visual injury at 92 g/ha applied as spray after 21 days under green house conditions relative to untreated control
Amaranthus tuberculatus [6] = test: Herbicidal activity against Amaranthus tuberculatus biotype WCS assessed as visual injury at 92 g/ha applied as spray after 14 days under green house conditions relative to untreated control
Amaranthus tuberculatus [7] = test: Herbicidal activity against Amaranthus tuberculatus biotype WCS assessed as visual injury at 92 g/ha applied as spray after 7 days under green house conditions relative to untreated control
Amaranthus tuberculatus [8] = test: Herbicidal activity against Amaranthus tuberculatus biotype MCR 15 assessed as visual injury at 92 g/ha applied as spray after 14 days under green house conditions relative to untreated control
Amaranthus tuberculatus [9] = test: Herbicidal activity against Amaranthus tuberculatus biotype ACR assessed as visual injury at 92 g/ha applied as spray after 21 days under green house conditions relative to untreated control
Amaranthus tuberculatus [10] = test: Herbicidal activity against Amaranthus tuberculatus biotype MCR 12 assessed as visual injury at 92 g/ha applied as spray after 21 days under green house conditions relative to untreated control
Amaranthus tuberculatus [11] = test: Herbicidal activity against Amaranthus tuberculatus biotype MCR 15 assessed as visual injury at 92 g/ha applied as spray after 21 days under green house conditions relative to untreated control
Amaranthus tuberculatus [12] = test: Herbicidal activity against Amaranthus tuberculatus biotype MCR 16 assessed as visual injury at 92 g/ha applied as spray after 7 days under green house conditions relative to untreated control
Amaranthus tuberculatus [13] = test: Herbicidal activity against Amaranthus tuberculatus biotype MCR 12 assessed as visual injury at 92 g/ha applied as spray after 7 days under green house conditions relative to untreated control
Amaranthus tuberculatus [14] = test: Herbicidal activity against Amaranthus tuberculatus biotype MCR 16 assessed as visual injury at 92 g/ha applied as spray after 14 days under green house conditions relative to untreated control
Amaranthus tuberculatus [15] = test: Herbicidal activity against Amaranthus tuberculatus biotype MCR 12 assessed as visual injury at 92 g/ha applied as spray after 14 days under green house conditions relative to untreated control
Amaranthus tuberculatus [16] = test: Herbicidal activity against Amaranthus tuberculatus biotype MCR 16 assessed as visual injury at 18 g/ha applied as spray after 7 days under green house conditions relative to untreated control
Amaranthus tuberculatus [17] = test: Herbicidal activity against Amaranthus tuberculatus biotype ACR assessed as visual injury at 18 g/ha applied as spray after 21 days under green house conditions relative to untreated control
Amaranthus tuberculatus [18] = test: Herbicidal activity against Amaranthus tuberculatus biotype MCR 16 assessed as visual injury at 18 g/ha applied as spray after 14 days under green house conditions relative to untreated control
Amaranthus tuberculatus [19] = test: Herbicidal activity against Amaranthus tuberculatus biotype WCS assessed as visual injury at 18 g/ha applied as spray after 14 days under green house conditions relative to untreated control
Amaranthus tuberculatus [20] = test: Herbicidal activity against Amaranthus tuberculatus biotype MCR 15 assessed as visual injury at 18 g/ha applied as spray after 21 days under green house conditions relative to untreated control
Amaranthus tuberculatus [21] = test: Herbicidal activity against Amaranthus tuberculatus biotype ACR assessed as visual injury at 18 g/ha applied as spray after 14 days under green house conditions relative to untreated control
Amaranthus tuberculatus [22] = test: Herbicidal activity against Amaranthus tuberculatus biotype MCR 12 assessed as visual injury at 18 g/ha applied as spray after 14 days under green house conditions relative to untreated control
Amaranthus tuberculatus [23] = test: Herbicidal activity against Amaranthus tuberculatus biotype ACR assessed as visual injury at 18 g/ha applied as spray after 7 days under green house conditions relative to untreated control
Amaranthus tuberculatus [24] = test: Herbicidal activity against Amaranthus tuberculatus biotype WCS assessed as visual injury at 18 g/ha applied as spray after 7 days under green house conditions relative to untreated control
Amaranthus tuberculatus [25] = test: Herbicidal activity against Amaranthus tuberculatus biotype MCR 16 assessed as visual injury at 18 g/ha applied as spray after 21 days under green house conditions relative to untreated control
Amaranthus tuberculatus [26] = test: Herbicidal activity against Amaranthus tuberculatus biotype MCR 15 assessed as visual injury at 18 g/ha applied as spray after 14 days under green house conditions relative to untreated control
Amaranthus tuberculatus [27] = test: Herbicidal activity against Amaranthus tuberculatus biotype WCS assessed as visual injury at 18 g/ha applied as spray after 21 days under green house conditions relative to untreated control
Amaranthus tuberculatus [28] = test: Herbicidal activity against Amaranthus tuberculatus biotype MCR 12 assessed as visual injury at 18 g/ha applied as spray after 21 days under green house conditions relative to untreated control
Amaranthus tuberculatus [29] = test: Herbicidal activity against Amaranthus tuberculatus biotype MCR 15 assessed as visual injury at 18 g/ha applied as spray after 7 days under green house conditions relative to untreated control
Amaranthus tuberculatus [30] = test: Herbicidal activity against Amaranthus tuberculatus biotype MCR 12 assessed as visual injury at 18 g/ha applied as spray after 7 days under green house conditions relative to untreated control

With `CS(=O)(=O)c1ccc(C(=O)C2C(=O)CCCC2=O)c(Cl)c1COCC(F)(F)F` [TEMBOTRIONE] the Activity (Amaranthus tuberculatus [1]) was 31%, the Activity (Amaranthus tuberculatus [2]) was 48% and the Activity (Amaranthus tuberculatus [3]) was 91%. For the same compound, the Activity (Amaranthus tuberculatus [4]) was 56%, the Activity (Amaranthus tuberculatus [5]) was 100% and the Activity (Amaranthus tuberculatus [6]) was 96%. The Activity (Amaranthus tuberculatus [7]) was 84%, the Activity (Amaranthus tuberculatus [8]) was 34% and the Activity (Amaranthus tuberculatus [9]) was 94%. It also gave an Activity (Amaranthus tuberculatus [10]) of 17%, an Activity (Amaranthus tuberculatus [11]) of 35% and an Activity (Amaranthus tuberculatus [12]) of 43%. It also gave an Activity (Amaranthus tuberculatus [13]) of 40%, an Activity (Amaranthus tuberculatus [14]) of 46% and an Activity (Amaranthus tuberculatus [15]) of 30%.
In the case of `Cc1c(C(=O)c2cnn(C)c2O)ccc(S(C)(=O)=O)c1C1=NOCC1` [TOPRAMEZONE], the Activity (Amaranthus tuberculatus [16]) is reported as 54%, the Activity (Amaranthus tuberculatus [17]) is reported as 96% and the Activity (Amaranthus tuberculatus [18]) is reported as 64%. It also gave an Activity (Amaranthus tuberculatus [19]) of 96%, an Activity (Amaranthus tuberculatus [20]) of 42% and an Activity (Amaranthus tuberculatus [21]) of 93%. The Activity (Amaranthus tuberculatus [22]) was 42%, the Activity (Amaranthus tuberculatus [23]) was 69% and the Activity (Amaranthus tuberculatus [24]) was 84%. The Activity (Amaranthus tuberculatus [25]) was 58%, the Activity (Amaranthus tuberculatus [26]) was 59% and the Activity (Amaranthus tuberculatus [27]) was 100%. For the same compound, the Activity (Amaranthus tuberculatus [28]) was 36%, the Activity (Amaranthus tuberculatus [29]) was 52% and the Activity (Amaranthus tuberculatus [30]) was 41%.
